From ChEMBL document CHEMBL1201862, “PubChem BioAssay data set” (2004)
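Grown in 96-well plates, cells were treated for 48 hours with each compound at five concentrations. Insufficient inhibition: endpoint recorded as highest concentration tested. GI50 = concentration required for 50% inhibition of growth.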 Active and inactive are the calls of the source. No stated cut-off is given here; in the data, active = GI50 up to about 1.1 µM and inactive = higher.

Assays:
Assay in all cases: NCI anticancer screen, dose series, 48 h
786-0 = test system: 786-0
CAKI-1 = test system: CAKI-1
CCRF-CEM = test system: CCRF-CEM
DU-145 = test system: DU-145
HCC 2998 = test system: HCC 2998
HCT-15 = test system: HCT-15
HOP-62 = test system: HOP-62
MDA-MB-435 = test system: MDA-MB-435
NCI/ADR-RES = test system: NCI/ADR-RES
OVCAR-3 = test system: OVCAR-3
OVCAR-4 = test system: OVCAR-4
SF-268 = test system: SF-268
SK-MEL-5 = test system: SK-MEL-5
SK-OV-3 = test system: SK-OV-3
SN12C = test system: SN12C
UACC-257 = test system: UACC-257
UACC-62 = test system: UACC-62
EKVX = test system: EKVX
SK-MEL-2 = test system: SK-MEL-2

Row | Structure (SMILES) | GI50 (786-0) | GI50 (CAKI-1) | GI50 (CCRF-CEM) | GI50 (DU-145) | GI50 (HCC 2998) | GI50 (HCT-15) | GI50 (HOP-62) | GI50 (MDA-MB-435) | GI50 (NCI/ADR-RES) | GI50 (OVCAR-3) | GI50 (OVCAR-4) | GI50 (SF-268) | GI50 (SK-MEL-5) | GI50 (SK-OV-3) | GI50 (SN12C) | GI50 (UACC-257) | GI50 (UACC-62) | GI50 (EKVX) | GI50 (SK-MEL-2)
1 | CN(C)c1ccc(/C=N/Nc2nc3ccccc3c(=O)n2-c2ccccc2)cc1 | 23.7 µM (inactive) | > 100 µM (inactive) | > 100 µM (inactive) | > 100 µM (inactive) | > 100 µM (inactive) | > 100 µM | 33.3 µM (inactive) | > 100 µM (inactive) | 63.1 µM (inactive) | 27 µM (inactive) | 15.9 µM (inactive) | 43.5 µM (inactive) | 56.9 µM (inactive) | 72.3 µM (inactive) | > 100 µM (inactive) | > 100 µM (inactive) | 28.6 µM (inactive) | – | –
2 | COc1cc(/C=C2/SC(c3ccccc3)N(c3cccc(NC(C)=O)c3)C2=O)cc(OC)c1OC (stereo not drawn) | 81.8 µM (inactive) | > 100 µM (inactive) | – | 92.3 µM (inactive) | > 100 µM (inactive) | 46.9 µM | 81.8 µM (inactive) | 35 µM (inactive) | 40.7 µM (inactive) | 60.1 µM (inactive) | 66.2 µM (inactive) | 67.9 µM (inactive) | 24.8 µM (inactive) | 75 µM (inactive) | 91.8 µM (inactive) | 67.8 µM (inactive) | 50.5 µM (inactive) | 50.7 µM (inactive) | –
3 | CCOc1ccc(/N=N/C2C(=O)N(C(=O)CC(=O)Nc3ccccc3OC)N=C2C)cc1 (stereo not drawn) | > 39.1 µM (inactive) | > 36.7 µM (inactive) | > 100 µM (inactive) | > 77.6 µM (inactive) | > 21.7 µM (inactive) | 14.5 µM | > 33.4 µM (inactive) | 1.93 µM (inactive) | 30 µM (inactive) | 8.83 µM (inactive) | > 19.7 µM (inactive) | > 42.8 µM (inactive) | 32.3 µM (inactive) | > 37.2 µM (inactive) | > 100 µM (inactive) | > 74.3 µM (inactive) | > 44.3 µM (inactive) | – | > 38.2 µM (inactive)
4 | CC1=CCC([C@@](C)(O)CCCC(C)(C)N=C=S)CC1 (stereo partly drawn) | 17.7 µM (inactive) | – | 22.2 µM (inactive) | 16.4 µM (inactive) | 18.2 µM (inactive) | 18.5 µM | 22.6 µM (inactive) | 17.1 µM (inactive) | 19.6 µM (inactive) | 18.4 µM (inactive) | 16.5 µM (inactive) | 16.8 µM (inactive) | 15.4 µM (inactive) | 17.9 µM (inactive) | 18.1 µM (inactive) | 19.4 µM (inactive) | 16.9 µM (inactive) | 17 µM (inactive) | 17.7 µM (inactive)
5 | CCOP(=O)(/C=C/n1cc(C)c(=O)[nH]c1=O)OCC | > 100 µM (inactive) | > 100 µM (inactive) | > 100 µM (inactive) | > 100 µM (inactive) | – | > 100 µM | > 100 µM (inactive) | > 100 µM (inactive) | > 100 µM (inactive) | > 100 µM (inactive) | > 100 µM (inactive) | > 100 µM (inactive) | > 100 µM (inactive) | > 100 µM (inactive) | > 100 µM (inactive) | > 100 µM (inactive) | > 100 µM (inactive) | > 100 µM (inactive) | > 100 µM (inactive)
6 | CCN(CCO)CC1CCCC2CCCCC21 (stereo not drawn) | > 100 µM (inactive) | > 100 µM (inactive) | – | > 100 µM (inactive) | > 100 µM (inactive) | > 100 µM | > 100 µM (inactive) | > 100 µM (inactive) | > 100 µM (inactive) | > 100 µM (inactive) | > 100 µM (inactive) | > 100 µM (inactive) | > 100 µM (inactive) | > 100 µM (inactive) | > 100 µM (inactive) | > 100 µM (inactive) | > 100 µM (inactive) | > 100 µM (inactive) | > 100 µM (inactive)
7 | CC(C)C1CC=NN1C(=O)OC(C)(C)C (stereo not drawn) | > 100 µM (inactive) | > 100 µM (inactive) | > 100 µM (inactive) | > 100 µM (inactive) | > 100 µM (inactive) | > 100 µM | > 100 µM (inactive) | > 100 µM (inactive) | > 100 µM (inactive) | > 100 µM (inactive) | – | > 100 µM (inactive) | > 100 µM (inactive) | > 100 µM (inactive) | > 100 µM (inactive) | > 100 µM (inactive) | > 100 µM (inactive) | > 100 µM (inactive) | –
8 | COc1cc(-c2nc(N)c(C#N)c3c2CCS(=O)(=O)c2ccc(C)cc2-3)cc(OC)c1OC | 19.1 µM (inactive) | > 100 µM (inactive) | > 100 µM (inactive) | > 100 µM (inactive) | > 100 µM (inactive) | > 100 µM | 22.9 µM (inactive) | > 100 µM (inactive) | 12.6 µM (inactive) | > 100 µM (inactive) | > 100 µM (inactive) | > 100 µM (inactive) | > 100 µM (inactive) | – | 39.6 µM (inactive) | > 100 µM (inactive) | > 100 µM (inactive) | – | 49.7 µM (inactive)
9 | O=C(c1ccccc1)c1ccc(N2C(=O)/C(=C/c3cccc([N+](=O)[O-])c3)N=C2c2ccccc2)c(N2C(=O)/C(=C/c3cccc([N+](=O)[O-])c3)N=C2c2ccccc2)c1 | 79.1 µM (inactive) | 49.8 µM (inactive) | – | 51.9 µM (inactive) | 15 µM (inactive) | 16.5 µM | 75.3 µM (inactive) | 4.88 µM (inactive) | 25.1 µM (inactive) | 30 µM (inactive) | 34.6 µM (inactive) | 62.5 µM (inactive) | 2.34 µM (inactive) | > 100 µM (inactive) | 98.4 µM (inactive) | 36.2 µM (inactive) | 20.8 µM (inactive) | > 100 µM (inactive) | 26.4 µM (inactive)
10 | CC[C@H]1C=CCC[C@@]2(C[C@@H]3CC[C@H]4[C@@H](C(=O)OCCCCCCCCCCCCCCCC(=O)N(CCCNC(C)=O)C[C@H](CCNC(C)=O)OC(C)=O)[C@@]5(CCC[C@@H](C)O5)NC(=[N+]34)N2)O1 | 1.98 µM (inactive) | 2.22 µM (inactive) | – | 1.57 µM (inactive) | 1.26 µM (inactive) | 1.7 µM | 2 µM (inactive) | 1.64 µM (inactive) | > 10 µM (inactive) | 0.787 µM (active) | 1.4 µM (inactive) | 1.66 µM (inactive) | 1.3 µM (inactive) | 1.74 µM (inactive) | 2.01 µM (inactive) | 1.24 µM (inactive) | 1.85 µM (inactive) | 0.861 µM (active) | 1.72 µM (inactive)
11 | C=C1C(=O)[C@@]23CC[C@@H]4[C@@]5(C)CCC[C@@]4(OC5=O)C2(C)CC[C@]1(OC)C3 (stereo partly drawn) | 0.279 µM (active) | 1.75 µM (inactive) | 0.0605 µM (active) | 4.41 µM (inactive) | 0.351 µM (active) | 0.581 µM | 1.17 µM (inactive) | 1.32 µM (inactive) | 1.45 µM (inactive) | 1.01 µM (active) | – | 2.14 µM (inactive) | 1.59 µM (inactive) | – | 1.73 µM (inactive) | 1.51 µM (inactive) | 1.35 µM (inactive) | 9.18 µM (inactive) | 1.06 µM (active)
